Data on 20 compounds can be found in ChEMBL document CHEMBL4732063, “Ninhydrins inhibit carbonic anhydrases directly binding to the metal ion” (Eur J Med Chem, 2021).

By Ki is commonly meant the dissociation constant of the complex between target and ligand, obtained from inhibition or displacement.

Sequence of Carbonic anhydrase 1 (P00915 whole entry): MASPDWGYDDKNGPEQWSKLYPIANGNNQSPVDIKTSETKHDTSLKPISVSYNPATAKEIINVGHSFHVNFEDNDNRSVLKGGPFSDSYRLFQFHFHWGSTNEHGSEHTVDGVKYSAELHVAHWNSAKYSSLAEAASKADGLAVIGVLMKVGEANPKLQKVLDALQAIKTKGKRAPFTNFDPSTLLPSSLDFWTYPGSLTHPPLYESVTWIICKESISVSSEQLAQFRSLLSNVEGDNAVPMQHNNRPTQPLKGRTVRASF

The first assay has as its target Carbonic anhydrase 1 (Homo sapiens, UniProt P00915). The assay is described as follows: Inhibition of recombinant human carbonic anhydrase 1 preincubated with enzyme for 15 mins by phenol red dye based stopped flow CO2 hydration assay.
In the case of `O=C1c2ccccc2C(=O)C1(O)O`, the Ki was determined as 5.38 µM.

For another assay, the target named is Carbonic anhydrase 7 (Homo sapiens, UniProt P43166). The assay is described as follows: Inhibition of recombinant human carbonic anhydrase 7 preincubated with enzyme for 15 mins by phenol red dye based stopped flow CO2 hydration assay.
Sequence of Carbonic anhydrase 7 (P43166 whole entry): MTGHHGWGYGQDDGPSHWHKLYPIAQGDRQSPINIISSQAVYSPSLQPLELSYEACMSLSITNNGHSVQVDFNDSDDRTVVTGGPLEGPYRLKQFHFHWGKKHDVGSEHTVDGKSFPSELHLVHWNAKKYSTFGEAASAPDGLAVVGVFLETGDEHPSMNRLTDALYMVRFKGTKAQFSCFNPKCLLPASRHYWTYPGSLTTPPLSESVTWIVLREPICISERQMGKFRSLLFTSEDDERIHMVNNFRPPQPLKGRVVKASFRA
As to `O=C1c2ccccc2C(=O)C1(O)O`, the Ki is 0.074 µM.

The next assay deals with Carbonic anhydrase 2 (Homo sapiens, UniProt P00918). The assay is described as follows: Inhibition of recombinant human carbonic anhydrase 2 preincubated with enzyme for 15 mins by phenol red dye based stopped flow CO2 hydration assay.
For the compound `O=C1c2ccccc2C(=O)C1(O)O`, the inhibition constant Ki came out at 22.7 µM.

A further assay deals with Carbonic anhydrase 9 (Homo sapiens, UniProt Q16790). Briefly: Inhibition of recombinant human carbonic anhydrase 9 preincubated with enzyme for 15 mins by phenol red dye based stopped flow CO2 hydration assay.
With `O=C1c2ccccc2C(=O)C1(O)O`, the Ki was 2.37 µM.

`O=C1c2cc(Br)cc(Br)c2C(=O)C1(O)O`: the Ki turned out to be 2.81 µM.

For the compound `Cc1ccc2c(c1)C(=O)C(O)(O)C2=O`, the Ki was determined as 16.8 µM.

As to `O=C1c2ccc([N+](=O)[O-])cc2C(=O)C1(O)O`, the Ki was 29.6 µM.

Consider `O=C1c2cccc(Br)c2C(=O)C1(O)O`, for which the Ki was 61.2 µM.

For `COc1ccc(CNC(=O)CCl)c2c1C(=O)C(O)(O)C2=O`, the Ki was 8.41 µM.

For the compound `O=C1c2cccc([N+](=O)[O-])c2C(=O)C1(O)O`, the Ki came to 31 µM.

Take `COc1cc2c(cc1OC)C(=O)C(O)(O)C2=O`: the Ki amounted to 30.4 µM.

Take `O=C1c2ccc(Br)cc2C(=O)C1(O)O`: the inhibition constant (Ki) was determined as 2.85 µM.

With `O=C1c2cccc(O)c2C(=O)C1(O)O`, the Ki worked out at 17.1 µM.

On to `Cc1cccc2c1C(=O)C(O)(O)C2=O`, for which the inhibition constant (Ki) was 51.4 µM.

Consider `O=C1c2cccc(F)c2C(=O)C1(O)O`, for which the Ki was 44.3 µM.

Regarding `CC(C)Oc1cccc2c1C(=O)C(O)(O)C2=O`, the Ki amounted to 1.34 µM.

Regarding `COc1ccc2c(c1)C(=O)C(O)(O)C2=O`, the inhibition constant Ki was 13.4 µM.

For `COc1ccc(OC)c2c1C(=O)C(O)(O)C2=O`, the Ki amounted to 68.2 µM.

Regarding `O=C1c2ccc(F)cc2C(=O)C1(O)O`, the Ki is 38.7 µM.

As for `O=C1c2ccc(O)cc2C(=O)C1(O)O`, the Ki stood at 27.8 µM.

In the case of `COc1ccc(C(C)C)c2c1C(=O)C(O)(O)C2=O`, the Ki was 54.3 µM.

In the case of `O=C1c2c(Br)c(Br)c(Br)c(Br)c2C(=O)C1(O)O`, the Ki worked out at 46.7 µM.

As to `COc1cccc2c1C(=O)C(O)(O)C2=O`, the inhibition constant Ki was determined as 34.1 µM.

In another assay the target is Carbonic anhydrase 4 (Homo sapiens, UniProt P22748). The assay is described as follows: Inhibition of recombinant human carbonic anhydrase 4 preincubated with enzyme for 15 mins by phenol red dye based stopped flow CO2 hydration assay.
Sequence of Carbonic anhydrase 4 (P22748 whole entry): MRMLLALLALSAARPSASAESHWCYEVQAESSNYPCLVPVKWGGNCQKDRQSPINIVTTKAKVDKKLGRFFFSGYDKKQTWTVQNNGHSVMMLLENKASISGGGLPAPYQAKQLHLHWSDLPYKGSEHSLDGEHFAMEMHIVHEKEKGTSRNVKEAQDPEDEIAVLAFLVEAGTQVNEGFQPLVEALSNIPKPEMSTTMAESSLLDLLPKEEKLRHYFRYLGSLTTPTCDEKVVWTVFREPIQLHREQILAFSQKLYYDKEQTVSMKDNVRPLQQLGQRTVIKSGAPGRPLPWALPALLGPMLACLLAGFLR
`O=C1c2ccccc2C(=O)C1(O)O`: the Ki was greater than 100 µM.

As to `O=C1c2cc(Br)cc(Br)c2C(=O)C1(O)O`, the Ki is greater than 100 µM.

As to `Cc1ccc2c(c1)C(=O)C(O)(O)C2=O`, the Ki was 84.6 µM.

As to `O=C1c2ccc([N+](=O)[O-])cc2C(=O)C1(O)O`, the Ki is greater than 100 µM.

As for `O=C1c2cccc(Br)c2C(=O)C1(O)O`, the Ki is greater than 100 µM.

With `COc1ccc(CNC(=O)CCl)c2c1C(=O)C(O)(O)C2=O`, the Ki is greater than 100 µM.

Regarding `O=C1c2cccc([N+](=O)[O-])c2C(=O)C1(O)O`, the Ki is greater than 100 µM.

`COc1cc2c(cc1OC)C(=O)C(O)(O)C2=O`: the Ki was greater than 100 µM.

With `O=C1c2ccc(Br)cc2C(=O)C1(O)O`, the Ki was 71.3 µM.

In the case of `O=C1c2cccc(O)c2C(=O)C1(O)O`, the Ki was greater than 100 µM.

On to `Cc1cccc2c1C(=O)C(O)(O)C2=O`, for which the Ki was greater than 100 µM.

With `O=C1c2cccc(F)c2C(=O)C1(O)O`, the Ki is greater than 100 µM.

As for `CC(C)Oc1cccc2c1C(=O)C(O)(O)C2=O`, the Ki was greater than 100 µM.

Regarding `COc1ccc2c(c1)C(=O)C(O)(O)C2=O`, the Ki is 74.3 µM.

For the compound `COc1ccc(OC)c2c1C(=O)C(O)(O)C2=O`, the Ki is greater than 100 µM.

In the case of `O=C1c2ccc(F)cc2C(=O)C1(O)O`, the Ki was greater than 100 µM.

Turning to `O=C1c2ccc(O)cc2C(=O)C1(O)O`, the Ki was greater than 100 µM.

Regarding `COc1ccc(C(C)C)c2c1C(=O)C(O)(O)C2=O`, the Ki was greater than 100 µM.

Take `O=C1c2c(Br)c(Br)c(Br)c(Br)c2C(=O)C1(O)O`: the Ki stood at 39.7 µM.

`COc1cccc2c1C(=O)C(O)(O)C2=O`: the Ki is greater than 100 µM.
